Results from ChEMBL document CHEMBL1124100, “Structure-activity profile of a series of novel triazoloquinazoline adenosine antagonists” (J Med Chem, 1988).

How the values were obtained:
Adenosine A2 receptor = Adenosine A2 receptor (Rattus norvegicus, UniProt P29276+P30543)
Description: Inhibition of binding to Adenosine-2 receptor using [3H]NECA in rat striatum

Adenosine receptor A1 = biological target: T1, Adenosine receptor A1 (Rattus norvegicus, UniProt P25099); assay: Inhibition of binding towards adenosine A1 receptor using [3H]N-cyclohexyladenosine ([3H]CHA) in rat whole brain membranes.; type: cell membranes
T1 sequence (P25099 whole entry): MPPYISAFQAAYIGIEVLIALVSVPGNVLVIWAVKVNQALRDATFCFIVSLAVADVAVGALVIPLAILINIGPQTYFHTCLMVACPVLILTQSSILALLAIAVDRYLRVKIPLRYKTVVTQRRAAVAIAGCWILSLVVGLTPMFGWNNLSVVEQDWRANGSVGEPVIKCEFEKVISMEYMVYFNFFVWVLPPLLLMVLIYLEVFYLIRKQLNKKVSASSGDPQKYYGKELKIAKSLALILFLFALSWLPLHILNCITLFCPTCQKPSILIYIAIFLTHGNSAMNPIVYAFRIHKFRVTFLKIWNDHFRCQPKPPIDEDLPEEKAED

[1] = biological target: T2, Adenosine receptor A1 (Rattus norvegicus) (UniProt P25099); assay: (§1) Ratio of Ki at A2 to Ki at A1 receptors
T2 sequence (whole entry): T1 sequence (P25099 whole entry)

Cavia porcellus [2] = species on record: Cavia porcellus; assay: Inhibition of 2-chloroadenosine-induced relaxation in histamine-contracted guinea pig trachea; type: functional, organism-based
Cavia porcellus [3] = species on record: Cavia porcellus; assay: In vitro inhibition of adenylate cyclase activity of synaptoneurosomes from guinea pig cerebral cortex; type: functional
[4] = as §1

Row | SMILES | IC50 (Adenosine A2 receptor) [nM] | IC50 (Adenosine receptor A1) [nM] | Ratio [1] | IC50 (Cavia porcellus [2]) [nM] | IC50 (Cavia porcellus [3]) [nM] | Ratio [4]
1 | Nc1nc2ccc(O)cc2c2nc(-c3ccco3)nn12 | 5.5 | 9.5 | 0.58 | 1000 |  | 
2 | Nc1nc2ccccc2c2nc(-c3ccco3)nn12 | 27 | 38 | 0.71 | 100 | 40 | 
3 | CS(=O)(=O)O.Nc1nc2ccc(Cl)cc2c2nc(-c3ccc[nH]3)nn12 | 1205 | 610 | 2 | > 1000 |  | 
4 | Nc1nc2ccc(Cl)cc2c2nc(-c3ccc(Br)o3)nn12 | 531 | 1570 | 0.34 | > 1000 |  | 
5 | CNc1nc2ccc(Cl)cc2c2nc(-c3ccco3)nn12 | 61 | 89 | 0.69 | > 1000 |  | 
6 | CS(=O)(=O)O.Nc1nc2ccc(Cl)cc2c2nc(-c3ccco3)nn12 | 3.3 |  |  | 3 |  | 
7 | Nc1nc2ccc(Cl)cc2c2nc(C3CCCO3)nn12 (stereo unspecified) | 1580 | 827 | 1.9 | > 1000 | 480 | 
8 | OCCNc1nc2ccc(Cl)cc2c2nc(-c3ccco3)nn12 | 56 | 21 | 2.7 | > 1000 |  | 
9 | CS(=O)(=O)O.Nc1nc2ccc(Cl)cc2c2nc(-c3ccoc3)nn12 | 145 | 295 |  | > 1000 | 79 | 0.49
10 | CC(C)(C)Nc1nc2ccc(Cl)cc2c2nc(-c3ccco3)nn12 | > 10000 | > 10000 |  | > 1000 |  | 
11 | Oc1nc2ccc(Cl)cc2c2nc(-c3ccco3)nn12 | > 10000 | 10000 |  | > 1000 |  | 
12 | CS(=O)(=O)O.Cn1c(=N)n2nc(-c3ccco3)nc2c2ccccc21 | 2914 | 1220 | 2.4 | > 1000 | 1480 | 
13 | COc1ccc2nc(N)n3nc(-c4ccco4)nc3c2c1 | 19 | 31 | 0.61 | > 10000 |  | 
14 | CS(=O)(=O)O.Nc1nc2ccc(Cl)cc2c2nc(-c3cccs3)nn12 | 116 | 324 | 0.36 | > 1000 | 200 | 
15 | CCC(C)Nc1nc2ccc(Cl)cc2c2nc(-c3ccco3)nn12.CS(=O)(=O)O (stereo unspecified) | 158 | 61 | 2.6 | > 1000 |  | 
16 | CC(C)Nc1nc2ccc(Cl)cc2c2nc(-c3ccco3)nn12 | 179 | 22 | 8.2 | > 1000 | 400 | 
17 | Cn1c(=O)c2nc[nH]c2n(C)c1=O [THEOPHYLLINE] |  |  |  | 3000 | 10000 | 
18 | CN(C)c1nc2ccc(Cl)cc2c2nc(-c3ccco3)nn12 | > 10000 | > 10000 |  | > 1000 | > 1000 | 
19 | Nc1nc2ccc(OCc3ccccc3)cc2c2nc(-c3ccco3)nn12 | 1290 | 145 | 8.9 | > 10000 |  | 
